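Five compound concentrations were applied to cells in 96-well plates for 48 hours; endpoints were derived by simple linear interpolation of the resulting dose-response curve. TGI marks complete inhibition of growth.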
How the values were obtained:
Assay in all cases: NCI tumour cell line growth inhibition, 48 h
PC-3 prostate = tested on: PC-3 prostate
MDA-MB-231 breast = tested on: MDA-MB-231 breast
MDA-N = tested on: MDA-N
SK-MEL-28 melanoma = tested on: SK-MEL-28 melanoma
HOP-18 NSCLC = tested on: HOP-18 NSCLC
DLD-1 colon = tested on: DLD-1 colon
DMS 114 small cell lung = tested on: DMS 114 small cell lung

`CC(=O)O[C@H]1[C@@H](OC(C)=O)C(C)(C)/C=C/[C@H](C)C(=O)[C@@]2(OC(C)=O)C[C@@](C)(OC(C)=O)[C@H](OC(C)=O)[C@@H]2[C@H]2OC(=O)CC[C@@]2(OC(=O)c2ccccc2)[C@@H]1OCC(C)C` was tested, and the TGI (PC-3 prostate) was greater than 100 µM, the TGI (MDA-MB-231 breast) was greater than 100 µM and the TGI (MDA-N) was greater than 100 µM.
With `NC1(C(=O)O)CCCC1` the TGI (SK-MEL-28 melanoma) was greater than 625 µM, the TGI (HOP-18 NSCLC) was greater than 625 µM and the TGI (DLD-1 colon) was greater than 625 µM. It also gave a TGI (DMS 114 small cell lung) greater than 625 µM.
